Assay results as given in patent US20230116972A1, “CD38 MODULATORS AND METHODS OF USE THEREOF” (Cytokinetics, Inc., priority 2021, published 2023).
pIC50: −log10 of the molar value. Where two headings read alike, the source gives them in different places.

Experiments:
[1] = biological target: T1, endogenous CD38 in HL60 cells (Homo sapiens, UniProt P28907); assay: cellular CD38 assay in HL60 cells (cellular NAD levels); format: cell-based; conditions: all-trans retinoic acid, 24 hours, read-out: hCD38 HL60 ATRA NAD Cell Diaphorase IC50
T1 construct: endogenous in cells; host or cells: HL60 (leukemic cells, treated with all-trans retinoic acid)
T1 sequence (P28907 1-300): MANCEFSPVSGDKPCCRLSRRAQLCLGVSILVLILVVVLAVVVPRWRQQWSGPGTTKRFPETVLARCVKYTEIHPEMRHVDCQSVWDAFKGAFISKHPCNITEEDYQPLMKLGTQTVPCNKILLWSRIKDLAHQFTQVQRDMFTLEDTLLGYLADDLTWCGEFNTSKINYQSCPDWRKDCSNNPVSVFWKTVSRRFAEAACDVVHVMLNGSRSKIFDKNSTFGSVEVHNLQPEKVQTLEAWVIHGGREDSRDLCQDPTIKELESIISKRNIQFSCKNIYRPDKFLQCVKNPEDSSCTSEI
In short: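 Endogenous CD38 inhibition is inferred from NAD levels in HL60 cells after 24 h compound exposure at 20000 cells per well. A lytic cycling readout (0.2 U/mL diaphorase, 0.8 U/mL alcohol dehydrogenase, resazurin, FMN, ethanol, 0.2% Triton X-100, Tris/EDTA pH 8.4) ran 60 min at ambient temperature. Resorufin fluorescence was read at 540/590 nm.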

CYP2B6 = biological target: T2, CYP2B6 (Homo sapiens, UniProt P20813); assay: direct inhibition of CYP450 in human liver microsomes; format: in vitro ADME; conditions: for activity at 3 µM / activity at 10 µM / activity at 50 µM: % of non-inhibited control, read-out: CYP2B6 T0 % activity; for pIC50: estimated from 3, 10, 50 uM, read-out: CYP2B6 T0 estimated IC50
T2 construct: from tissue; host or cells: human liver microsomes (pooled in the time-dependent assay)
T2 sequence (P20813 1-491): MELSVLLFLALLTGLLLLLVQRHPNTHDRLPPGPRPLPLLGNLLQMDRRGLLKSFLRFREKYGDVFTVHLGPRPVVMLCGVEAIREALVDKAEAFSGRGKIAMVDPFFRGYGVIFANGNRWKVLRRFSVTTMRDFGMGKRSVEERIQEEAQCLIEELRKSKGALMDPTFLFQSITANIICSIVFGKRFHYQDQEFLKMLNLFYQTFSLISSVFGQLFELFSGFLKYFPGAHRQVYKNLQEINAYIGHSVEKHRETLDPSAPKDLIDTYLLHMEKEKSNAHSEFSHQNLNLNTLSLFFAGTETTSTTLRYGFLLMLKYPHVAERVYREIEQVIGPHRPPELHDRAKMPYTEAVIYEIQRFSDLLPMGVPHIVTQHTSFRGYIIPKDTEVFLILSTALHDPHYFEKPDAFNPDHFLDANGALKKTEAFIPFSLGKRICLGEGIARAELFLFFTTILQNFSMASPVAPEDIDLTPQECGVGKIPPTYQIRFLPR
Description: (§1) Direct inhibition: […] A Perspective of the Pharmaceutical Research and Manufacturers of America”, Drug Metabolism and Disposition, 37 (7): 1355, 2009). For 3A4, the % activity was measured using both midazolam and testosterone as probes. Each compound at 3, 10, and 50 μM was incubated with HLM, NADPH and CYP isoenzyme specific probe substrates at 37° C. Inhibition of the probe substrate metabolism was quantified using LC/MS/MS. […] Known chemical inhibitors specific for the individual CYP isoenzymes were evaluated in parallel as positive controls and these compounds produced CYP inhibition consistent with published results (Walsky & Obach RS. “Validated assays for human cytochrome P450 activities”. Drug Metab Dispos. 32(6):647-60, 2004). Note that, in Tables 6 and 7, the “Compound No” corresponds to the compound numbers in Table 1.

CYP1A2 = biological target: T3, CYP1A2 (Homo sapiens, UniProt P05177); assay: as above; format: in vitro ADME
T3 construct: from tissue; host or cells: human liver microsomes (pooled in the time-dependent assay)
T3 sequence (P05177 1-516): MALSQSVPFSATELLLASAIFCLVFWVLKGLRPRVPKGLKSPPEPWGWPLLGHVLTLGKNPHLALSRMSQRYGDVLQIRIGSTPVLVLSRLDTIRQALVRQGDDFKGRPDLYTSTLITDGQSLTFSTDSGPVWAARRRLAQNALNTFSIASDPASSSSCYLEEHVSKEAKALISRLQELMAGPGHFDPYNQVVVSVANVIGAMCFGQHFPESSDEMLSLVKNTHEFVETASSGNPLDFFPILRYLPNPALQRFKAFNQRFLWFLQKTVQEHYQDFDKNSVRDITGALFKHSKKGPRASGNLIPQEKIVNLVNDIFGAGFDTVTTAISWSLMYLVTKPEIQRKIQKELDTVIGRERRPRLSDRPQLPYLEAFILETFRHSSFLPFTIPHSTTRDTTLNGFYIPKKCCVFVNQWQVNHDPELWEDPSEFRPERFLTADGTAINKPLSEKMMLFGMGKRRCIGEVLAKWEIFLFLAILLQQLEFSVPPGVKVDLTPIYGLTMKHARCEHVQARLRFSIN
Description: as §1

CYP2C9 = biological target: T4, CYP2C9 (Homo sapiens, UniProt P11712); assay: as above; format: in vitro ADME; conditions: for activity at 3 µM / activity at 10 µM / activity at 50 µM: % of non-inhibited control, read-out: CYP2C9 T0 % activity; for pIC50: estimated from 3, 10, 50 uM, read-out: CYP2C9 T0 estimated IC50
T4 construct: from tissue; host or cells: human liver microsomes (pooled in the time-dependent assay)
T4 sequence (P11712 whole entry): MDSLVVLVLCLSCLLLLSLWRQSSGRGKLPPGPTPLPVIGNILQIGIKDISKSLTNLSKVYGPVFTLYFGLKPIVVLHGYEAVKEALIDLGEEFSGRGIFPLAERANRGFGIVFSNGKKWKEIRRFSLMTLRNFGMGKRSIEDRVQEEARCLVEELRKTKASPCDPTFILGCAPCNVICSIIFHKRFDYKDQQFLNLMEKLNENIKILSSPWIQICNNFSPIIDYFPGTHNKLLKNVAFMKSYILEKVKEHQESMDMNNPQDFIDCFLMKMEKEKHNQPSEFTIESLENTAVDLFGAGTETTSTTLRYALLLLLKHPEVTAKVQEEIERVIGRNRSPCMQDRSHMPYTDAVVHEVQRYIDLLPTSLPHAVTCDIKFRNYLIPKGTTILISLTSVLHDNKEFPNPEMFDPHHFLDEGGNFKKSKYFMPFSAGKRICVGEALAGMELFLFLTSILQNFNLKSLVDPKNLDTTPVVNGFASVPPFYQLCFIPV
Description: as §1

CYP2C19 = biological target: T5, CYP2C19 (Homo sapiens, UniProt P33261); assay: as above; format: in vitro ADME; conditions: for activity at 3 µM / activity at 10 µM / activity at 50 µM: % of non-inhibited control, read-out: CYP2C19 T0 % activity; for pIC50: estimated from 3, 10, 50 uM, read-out: CYP2C19 T0 estimated IC50
T5 construct: from tissue; host or cells: human liver microsomes (pooled in the time-dependent assay)
T5 sequence (P33261 whole entry): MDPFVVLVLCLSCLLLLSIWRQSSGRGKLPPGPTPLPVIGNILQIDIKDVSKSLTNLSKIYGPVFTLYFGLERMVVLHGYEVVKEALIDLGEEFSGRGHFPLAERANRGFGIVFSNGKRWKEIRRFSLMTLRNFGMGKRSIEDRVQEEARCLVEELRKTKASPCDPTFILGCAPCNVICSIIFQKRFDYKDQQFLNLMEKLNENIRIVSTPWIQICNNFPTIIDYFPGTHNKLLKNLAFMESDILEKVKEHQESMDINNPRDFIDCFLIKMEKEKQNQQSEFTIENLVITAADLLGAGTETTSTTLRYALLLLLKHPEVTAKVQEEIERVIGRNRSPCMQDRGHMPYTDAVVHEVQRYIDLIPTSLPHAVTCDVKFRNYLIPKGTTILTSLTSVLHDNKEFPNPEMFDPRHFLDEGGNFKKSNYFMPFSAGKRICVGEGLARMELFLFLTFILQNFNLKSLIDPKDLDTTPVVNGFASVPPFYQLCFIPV
Description: as §1

[2] = 3 uM, human liver microsomes, % of non-inhibited control, read-out: CYP1A2 T0 % activity
[3] = 10 uM, human liver microsomes, % of non-inhibited control, read-out: CYP1A2 T0 % activity
[4] = 50 uM, human liver microsomes, % of non-inhibited control, read-out: CYP1A2 T0 % activity
[5] = human liver microsomes, estimated from 3, 10, 50 uM, read-out: CYP1A2 T0 estimated IC50

Compound	pIC50 [1]	activity at 3 µM (CYP2B6) [%]	activity at 10 µM (CYP2B6) [%]	activity at 50 µM (CYP2B6) [%]	pIC50 (CYP2B6)	activity at 3 µM (CYP2C9) [%]	activity at 10 µM (CYP2C9) [%]	activity at 50 µM (CYP2C9) [%]	pIC50 (CYP2C9)	activity at 3 µM (CYP2C19) [%]	activity at 10 µM (CYP2C19) [%]	activity at 50 µM (CYP2C19) [%]	pIC50 (CYP2C19)	activity at 3 µM (CYP1A2; [2]) [%]	activity at 10 µM (CYP1A2; [3]) [%]	activity at 50 µM (CYP1A2; [4]) [%]	pIC50 (CYP1A2; [5])	other results
CC(C)(O)c1ccc(NC(=O)c2nccc(-n3ccnc3)n2)cn1 [Compound 249, N-(6-(2-hydroxypropan-2-yl)pyridin-3-yl)-4-(1H-imidazol-1-yl)pyrimidine-2-carboxamide]	6.08	98	98	92	< 4.30	106	103	92	< 4.30	95	96	74	< 4.30	–	–	–	–	pIC50 (CYP1A2): < 4.30; activity at 3 µM (CYP1A2; human, microsomes): 99%; activity at 10 µM (CYP1A2; human, microsomes): 93%; activity at 50 µM (CYP1A2; human, microsomes): 81%
Cn1cncc1-c1ccnc(C(=O)N[C@H]2CC[C@H](O)CC2)n1 [Compound 256, N-((1r,4r)-4-hydroxycyclohexyl)-4-(1-methyl-1H-imidazol-5-yl)pyrimidine-2-carboxamide]	5.44	103	101	91	< 4.30	90	94	86	< 4.30	97	96	88	< 4.30	94	92	78	< 4.30	–
Cn1cncc1-c1ccnc(C(=O)Nc2ccc(C(C)(C)O)nc2)n1 [Compound 250, N-(6-(2-hydroxypropan-2-yl)pyridin-3-yl)-4-(1-methyl-1H-imidazol-5-yl)pyrimidine-2-carboxamide]	6.03	101	99	89	< 4.30	99	94	89	< 4.30	88	88	66	< 4.30	–	–	–	–	pIC50 (CYP1A2): > 4.30; activity at 3 µM (CYP1A2; human, microsomes): 88%; activity at 10 µM (CYP1A2; human, microsomes): 69%; activity at 50 µM (CYP1A2; human, microsomes): 34%
CO[C@H]1CC[C@H](NC(=O)c2cc(C3CCC(F)(F)CC3)nc(-c3cncn3C)n2)CC1 [Compound 289, 6-(4,4-difluorocyclohexyl)-N-((1r,4r)-4-methoxycyclohexyl)-2-(1-methyl-1H-imidazol-5-yl)pyrimidine-4-carboxamide]	5.72	98	95	79	< 4.30	96	81	49	> 4.30	83	63	23	> 4.30	100	95	81	< 4.30	–
CO[C@H]1CC[C@H](NC(=O)c2cc(C3(C)COC3)nc(-c3cncn3C)n2)CC1 [Compound 295, N-((1r,4r)-4-methoxycyclohexyl)-2-(1-methyl-1H-imidazol-5-yl)-6-(3-methyloxetan-3-yl)pyrimidine-4-carboxamide]	5.64	96	91	79	< 4.30	91	85	63	< 4.30	108	100	79	< 4.30	101	98	97	< 4.30	–
CO[C@H]1CC[C@H](NC(=O)c2cc(C3CCOCC3)nc(-c3cncn3C)n2)CC1 [Compound 199, N-((1r,4r)-4-methoxycyclohexyl)-2-(1-methyl-1H-imidazol-5-yl)-6-(tetrahydro-2H-pyran-4-yl)pyrimidine-4-carboxamide]	5.58	95	80	53	< 4.30	101	96	69	< 4.30	92	85	39	> 4.30	96	96	85	< 4.30	–
CO[C@H]1CC[C@H](NC(=O)c2nccc(-c3cncn3C)n2)CC1 [Compound 148, N-((1r,4r)-4-methoxycyclohexyl)-4-(1-methyl-1H-imidazol-5-yl)pyrimidine-2-carboxamide]	5.72	–	–	–	–	–	–	–	–	–	–	–	–	–	–	–	–	–
